Data published in patent US20170145002A1, “DEUTERATED ISOXAZOLE DERIVATIVES AND THEIR USE AS METABOTROPIC GLUTAMATE RECEPTOR POTENTIATORS” (AstraZeneca AB, priority 2015, published 2017).

Legend:
[1] = Metabolic stability and intrinsic clearance in dog hepatocytes; format: in vitro ADME; settings: cryopreserved dog hepatocytes 1.0×10^6 viable cells/mL, 37° C., up to 120 minutes; read-out: Dog Hepatocytes Median t1/2
Procedure: Stock solutions (10 mM) of the test compounds and control compounds were prepared in appropriate solvent (DMSO). The incubation medium (L-15 Medium) was placed in a 37° C. water bath, and warming was allowed for at least 15 minutes prior to use. 80 μL of acetonitrile was added to each well of the 96-well deep well plate (quenching plate). In a new 96-well plate, the 10 mM test compound solutions and the control compound solution were diluted to 100 μM by combining 198 μL of acetonitrile and 2 μL of 10 mM stock. A vial of cryopreserved dog hepatocytes was removed from storage, while ensuring that vials remain at cryogenic temperatures until thawing process ensued. As quickly as possible, the cells were thawed by placing the vial in a 37° C. water bath and gently shaking the vials. Vials remained in water bath until all ice crystals had dissolved and were no longer visible. After thawing was complete, vial was sprayed with 70% ethanol, and transferred to a biosafety cabinet. The vial was opened and the contents poured into the 50 mL conical tube containing thawing medium. The 50 mL conical tube was placed into a centrifuge and spun at 100 g for 10 minutes. Upon completion of spin, the thawing medium was aspirated and hepatocytes resuspended in enough incubation medium to yield ˜1.5×10^6 cells/mL. Using Cellometer® Vision, cells were counted and the viable cell density was determined. Cells with poor viability (<80% viability) were not acceptable for use. Cells were diluted with incubation medium to a working cell density of 1.0×10^6 viable cells/mL. 247.5 μL of hepatocytes were transferred into each well of a 96-well cell culture plate. The plate was placed on Eppendorf Thermomixer Comfort plate shaker to allow the hepatocytes to warm for 10 minutes. 2.5 μL of 100 μM test compound solution or control compound solution were added into an incubation well containing cells, and mixed to achieve a homogenous suspension at 0.5 minutes, which when achieved, defined the 0.5 minute time point. At the 0.5 minute time point, 20 μL of incubated mixture was transferred to wells in a “Quenching” plate followed by vortexing. The plate was incubated at 37 ° C. at 900 rpm on an Eppendorf Thermomixer Comfort plate shaker. At 5, 15, 30, 45, 60, 80, 100 minutes and 120 minutes, the incubation system was mixed and samples of 20 μL of incubated mixture were serially transferred at each time point to wells in a separate “Quenching” plate followed by vortexing. The quenching plates were centrifuged for 20 minutes at 4,000 rpm. […]
All calculations were carried out using Microsoft Excel. Peak areas were determined from extracted ion chromatograms. […]
The in vitro intrinsic clearance (in vitro Clint, in μL/min/10^6 cells) is determined from the slope value using the following equation: […]

[2] = Metabolic stability and intrinsic clearance in rat hepatocytes; format: in vitro ADME; settings: cryopreserved rat hepatocytes 1.0×10^6 viable cells/mL, 37° C., up to 120 minutes; read-out: Rat Hepatocytes Median t1/2
Procedure: Stock solutions (10 mM) of Compounds A, B, C, D and of control compounds were prepared in the appropriate solvent (DMSO). The L-15 Medium was placed in a 37° C. water bath, and allowed to warm for at least 15 minutes prior to use. Acetonitrile (80 μL) was added to each well of the 96-well plate (quenching plate).
In a new 96-well plate, the solutions of the above compounds and of the control compounds were diluted to 100 μM by combining 198 μL of acetonitrile and 2 μL of each stock solutions. A vial of cryopreserved rat hepatocytes was removed from storage, while ensuring that the vial remain at cryogenic temperatures until thawing process ensued. As quickly as possible, the cells were thawed by placing the vial in a 37° C. water bath and gently shaking the vial. The vial remained in the water bath until all ice crystals had dissolved and were no longer visible. After thawing was completed, the vial was sprayed with 70% ethanol, and transferred into a biosafety cabinet. The vial was opened and the content poured into a 50 mL conical tube containing L-15 Medium. The vial was washed twice. The 50 mL conical tube was placed in a centrifuge and spun at 50 g for 3 minutes (room temperature). The L-15 medium was aspirated. A small volume of buffer (˜200 μL) was added and the pellet was re-suspended. The tube was filled with buffer to a volume of 50 mL and centrifugation was repeated. Upon completion of spin, the L-15 Medium was aspirated and the hepatocytes re-suspended in enough incubation medium to yield ˜1.5×10^6 cells/mL. Using Cellometer® Vision, the cells were counted and the viable cell density was determined. Cells with poor viability (<80% viability) were not acceptable for use. Cells were diluted with incubation medium to a working cell density of 1.0×10^6 viable cells/mL. Hepatocytes (247.5 μL) were transferred into each well of a 96-well cell culture plate. The plate was placed on an Eppendorf Thermomixer Comfort plate shaker to allow the hepatocytes to warm for 10 minutes.
Solutions (2.5 μL of 100 μM) of Compounds A, B, C, D and of the control compounds were added into an incubation well containing cells and mixed to achieve a homogenous suspension at 0.5 minutes, which when achieved, defined the 0.5 minute time point. At the 0.5 minute time point, the incubated mixture (20 μL) was transferred to wells in a “Quenching plate,” followed by vortexing. […]
All calculations were carried out using Microsoft Excel. Peak areas were determined from extracted ion chromatograms. The in vitro half-life (t1/2) of the parent compound was determined by regression analysis of the Ln percent parent disappearance vs. time curve.
The in vitro intrinsic clearance (in vitro Clint, in μL/min/10^6 cells) was determined from the slope value using the following equation: […]

[2H]C1([2H])OC([2H])([2H])C([2H])([2H])N(C(=O)c2cc(-c3cc(Cl)c4c(c3)CN([C@@H](C)C3CC3)C4=O)on2)C1([2H])[2H] [Compound A, (S)-7-chloro-2-(1-cyclopropylethyl)-5-(3-(morpholine-4-carbonyl-2,2,3,3,5,5,6,6-d8)isoxazol-5-yl)isoindolin-1-one]
half-life at 1 μM [1]: 40.1 min | half-life at 1 μM [2]: 100 min

[2H]C1([2H])CN(C(=O)c2cc(-c3cc(Cl)c4c(c3)CN([C@@H](C)C3CC3)C4=O)on2)CC([2H])([2H])O1 [Compound B, (S)-7-chloro-2-(1-cyclopropylethyl)-5-(3-(morpholine-4-carbonyl-2,2,6,6-d4)isoxazol-5-yl)isoindolin-1-one]
half-life at 1 μM [1]: 40.1 min | half-life at 1 μM [2]: 36.8 min

[2H]C1([2H])COCC([2H])([2H])N1C(=O)c1cc(-c2cc(Cl)c3c(c2)CN([C@@H](C)C2CC2)C3=O)on1 [Compound C, (S)-7-chloro-2-(1-cyclopropylethyl)-5-(3-(morpholine-4-carbonyl-3,3,5,5-d4)isoxazol-5-yl)isoindolin-1-one]
half-life at 1 μM [1]: 33.3 min | half-life at 1 μM [2]: 29.1 min

C[C@@H](C1CC1)N1Cc2cc(-c3cc(C(=O)N4CCOCC4)no3)cc(Cl)c2C1=O [Compound D, (S)-7-chloro-2-(1-cyclopropylethyl)-5-(3-(morpholine-4-carbonyl)isoxazol-5-yl)isoindolin-1-one, reference compound]
half-life at 1 μM [1]: 29.9 min | half-life at 1 μM [2]: 37.3 min
